Source: US10130830B2, “Preservative systems comprising cationic surfactants” (Laboratorios Miret, S.A., priority 2005, dated 2018)
Values joined by “and” are separate entries in the source; they are usually repeats but may differ in a detail not shown here. Identical values can stand only once.

Experiments:
aerobic total count = assay: Preservative action in cooked chicken breast, aerobic total count; type: cell-based; conditions: Example 9, cooked chicken, 0.2 g/kg
Experimental: (2) Determination of Preservative Action in Chicken Breast. Process of Preparation • 1. Fresh chicken breast was diced to pieces • 2. Brine (8.70% sodium chloride and 4.35% tripolyphosphate in water) was added to the fresh chicken in an amount of 11.5 g brine per 88.5 g meat in the control preparation and 11.5 g brine and 88.4 g meat in the preparations treated with preservative. • 3. Brine and meat were mixed during 15 minutes, in the preparations treated with preservative the preservative was added after 14 minutes in an amount of 0.2 g/kg. • 4. Vacuum refrigerate tumbling was made during 30 minutes. • 5. Samples were vacuum-packed in sterile bags and they were cooked at 85° C. for 30 minutes. • 6. The cooked chicken was refrigerated at 4° C. • 7. The cooked chicken was diced in irregular shapes. • 8. Then, the nuggets were stored at 10° C. in sterile vacuum-packed bags. Analysis […] Dilutions were made in buffered peptone water. Tryptone Soya Agar was harvested with each dilution and incubated at 35° C. for 48 hours. The mean value in log cfu/g of three samples per treatment and day of analysis was calculated.

Aerobes = assay: Preservative action in cosmetic products (Antimicrobial Effectiveness Testing USP 24th Edition), aerobes; type: cell-based; conditions: Example 10, oil in water emulsion with non-ionic surfactant, 0.2 g/kg
Text: (§1) (1) Determination of Preservative Action in Cosmetic Products. […] This assay consists of the contamination of the protecting formulations with an inoculum mixture of 10^8 cfu/ml concentration, for each of the micro-organisms, and the determination of the number of viable cells in time. This inoculum mixture is composed of the following microorganisms: [table] The cosmetic composition to be analysed is divided into sterile containers with 50 g of product for each flask. Each container is inoculated with 0.5 ml of inoculum (10^8 cfu/ml). The target concentration is 10^6 cfu/ml, approximately. All the containers are kept at a temperature between 20-25° C. and are protected from light. The level of the microbial contamination is checked at 0 hours, 7 days, 14 days and 28 days. The number of colonies is evaluated by dilution in buffer peptone with the appropriate neutraliser agent of the preservative. The culture media used for counting the microorganisms are: […] (2) Determination of Preservative Action in Chicken Breast. Process of Preparation • 1. Fresh chicken breast was diced to pieces • 2. Brine (8.70% sodium chloride and 4.35% tripolyphosphate in water) was added to the fresh chicken in an amount of 11.5 g brine per 88.5 g meat in the control preparation and 11.5 g brine and 88.4 g meat in the preparations treated with preservative. • 3. Brine and meat were mixed during 15 minutes, in the preparations treated with preservative the preservative was added after 14 minutes in an amount of 0.2 g/kg. • 4. Vacuum refrigerate tumbling was made during 30 minutes. • 5. Samples were vacuum-packed in sterile bags and they were cooked at 85° C. for 30 minutes. • 6. The cooked chicken was refrigerated at 4° C. • 7. The cooked chicken was diced in irregular shapes. • 8. Then, the nuggets were stored at 10° C. in sterile vacuum-packed bags. Analysis

Moulds = assay: Preservative action in cosmetic products (Antimicrobial Effectiveness Testing USP 24th Edition), moulds; type: cell-based, Aspergillus niger; conditions: Example 10, oil in water emulsion with non-ionic surfactant, 0.2 g/kg
Text: as §1

Yeast = assay: Preservative action in cosmetic products (Antimicrobial Effectiveness Testing USP 24th Edition), yeast; type: cell-based, Candida albicans; conditions: Example 10, oil in water emulsion with non-ionic surfactant, 0.2 g/kg
Text: as §1

[1] = day 56 (8 weeks), mean of triplicate

Row | SMILES | aerobic total count, mean (aerobic total count; day 0, mean of triplicate) | aerobic total count (aerobic total count; day 0, samples 1-3) | aerobic total count, mean (aerobic total count; day 7, mean of triplicate) | aerobic total count (aerobic total count; day 7, samples 1-3) | aerobic total count, mean (aerobic total count; day 14, mean of triplicate) | aerobic total count (aerobic total count; day 14, samples 1-3) | aerobic total count, mean (aerobic total count; day 21, mean of triplicate) | aerobic total count (aerobic total count; day 21, samples 1-3) | aerobic total count, mean (aerobic total count; day 28, mean of triplicate) | aerobic total count (aerobic total count; day 28, samples 1-3) | aerobic total count, mean (aerobic total count; day 35, mean of triplicate) | aerobic total count (aerobic total count; day 35, samples 1-3) | aerobic total count, mean (aerobic total count; day 42, mean of triplicate) | aerobic total count (aerobic total count; day 42, samples 1-3) | aerobic total count, mean (aerobic total count; day 49, mean of triplicate) | aerobic total count (aerobic total count; day 49, samples 1-3) | aerobic total count, mean (aerobic total count; [1]) | aerobic total count (aerobic total count; day 56, samples 1-3) | Aerobes count (Aerobes; 0 days) | Aerobes count (Aerobes; 7 days) | also measured
1 | CC(=O)O.CCCCCCCCCCCC(=O)N[C@@H](CCCN=C(N)N)C(=O)OCC [LAE Ac, LAE acetate] | 2.0 log cfu/g | 2.0 log cfu/g | 2.0 log cfu/g | 2.0 log cfu/g | 2.0 log cfu/g | 2.0 log cfu/g | 2.1 log cfu/g | 2.1 log cfu/g and 2.3 log cfu/g and 2.0 log cfu/g | 2.5 log cfu/g | 3.0 log cfu/g and 2.1 log cfu/g and 2.3 log cfu/g | 2.5 log cfu/g | 2.3 log cfu/g and 2.8 log cfu/g and 2.5 log cfu/g | 3.1 log cfu/g | 3.1 log cfu/g and 2.8 log cfu/g and 3.3 log cfu/g | 3.4 log cfu/g | 3.3 log cfu/g and 3.0 log cfu/g and 3.9 log cfu/g | 3.9 log cfu/g | 3.8 log cfu/g and 4.0 log cfu/g and 3.9 log cfu/g | 6.0 log cfu/g | 2.5 log cfu/g | Aerobes count (Aerobes; 14 days): <2.0 log cfu/g; Moulds count (Moulds; 0 days): 4.1 log cfu/g; Moulds count (Moulds; 7 days): <2.0 log cfu/g; Moulds count (Moulds; 14 days): <2.0 log cfu/g; Yeast count (Yeast; 0 days): 5.3 log cfu/g; Yeast count (Yeast; 7 days): 2.1 log cfu/g; Yeast count (Yeast; 14 days): <2.0 log cfu/g
2 | CC(O)C(=O)O.CCCCCCCCCCCC(=O)N[C@@H](CCCN=C(N)N)C(=O)OCC [LAE La, LAE lactate] | 2.0 log cfu/g | 2.0 log cfu/g | 2.0 log cfu/g | 2.0 log cfu/g | 2.0 log cfu/g | 2.0 log cfu/g | 2.2 log cfu/g | 2.1 log cfu/g and 2.4 log cfu/g and 2.0 log cfu/g | 2.3 log cfu/g | 2.6 log cfu/g and 2.1 log cfu/g and 2.3 log cfu/g | 2.7 log cfu/g | 2.8 log cfu/g and 2.5 log cfu/g | 3.3 log cfu/g | 3.1 log cfu/g and 3.5 log cfu/g and 3.3 log cfu/g | 3.6 log cfu/g | 3.3 log cfu/g and 3.6 log cfu/g and 3.9 log cfu/g | 4.1 log cfu/g | 4.2 log cfu/g and 4.0 log cfu/g and 3.9 log cfu/g | 6.1 log cfu/g | 2.2 log cfu/g | Aerobes count (Aerobes; 14 days): <2.0 log cfu/g; Moulds count (Moulds; 0 days): 4.2 log cfu/g; Moulds count (Moulds; 7 days): <2.0 log cfu/g; Moulds count (Moulds; 14 days): <2.0 log cfu/g; Yeast count (Yeast; 0 days): 5.4 log cfu/g; Yeast count (Yeast; 7 days): 2.2 log cfu/g; Yeast count (Yeast; 14 days): <2.0 log cfu/g
3 | CCCCCCCCCCCC(=O)N[C@@H](CCCN=C(N)N)C(=O)OCC.N[C@@H](CCC(=O)O)C(=O)O [LAE Gl, LAE glutamate] | 2.0 log cfu/g | 2.0 log cfu/g | 2.0 log cfu/g | 2.0 log cfu/g | 2.0 log cfu/g | 2.0 log cfu/g | 2.1 log cfu/g | 2.1 log cfu/g and 2.2 log cfu/g and 2.0 log cfu/g | 2.3 log cfu/g | 2.5 log cfu/g and 2.1 log cfu/g and 2.2 log cfu/g | 2.4 log cfu/g | 2.3 log cfu/g and 2.5 log cfu/g | 2.7 log cfu/g | 2.6 log cfu/g and 2.8 log cfu/g | 3.2 log cfu/g | 3.2 log cfu/g and 3.0 log cfu/g and 3.5 log cfu/g | 3.5 log cfu/g | 3.5 log cfu/g and 3.8 log cfu/g and 3.3 log cfu/g | 6.1 log cfu/g | 2.3 log cfu/g | Aerobes count (Aerobes; 14 days): <2.0 log cfu/g; Moulds count (Moulds; 0 days): 4.1 log cfu/g; Moulds count (Moulds; 7 days): <2.0 log cfu/g; Moulds count (Moulds; 14 days): <2.0 log cfu/g; Yeast count (Yeast; 0 days): 5.6 log cfu/g; Yeast count (Yeast; 7 days): 2.4 log cfu/g; Yeast count (Yeast; 14 days): <2.0 log cfu/g
